Assay results as given in patent US20260091049A1, “HALIDE-FREE AMMONIUM SILANES” (TOPIKOS SCIENTIFIC, INC., priority 2022, published 2026).
Where “and” joins values, the source holds several entries; their conditions need not be identical. Equal entries are not always repeated.

Assays:
[1] = Polymerization stability in aqueous media by LCMS/MS quantification of hydrolyzed trisiloxy species; assay type: physicochemical
[2] = Clarity and dissolution of the solid product in water; assay type: physicochemical
Protocol: A 500 mL round bottom reaction vessel was outfitted with an oil bath, stir bar, distillation head and condenser, receiving flask, oil bubbler, gas inlet that allows argon to pass through vessel and distillation setup, an immersion thermoprobe for the oil bath, and a thermoprobe for the head. The reactor is charged with 47.6 mL of a 42% methanolic solution of dimethyloctadecyl[3-(trimethoxysilyl)propyl]ammonium chloride (Aldrich), 200 mL DMF, 27.7 g (3 equiv.) of N-Tris(hydroxymethyl)methyl-2-aminoethanesulfonic acid (TES) and 8.7 mL of 25% MeONa in MeOH. The mixture is heated to 125 degrees C. (oil temp) and the methanol is collected by distillation. As the reaction is heated a homogenous solution is formed. As the methanol is distilled off a white precipitate begins to form. The reaction is heated until the head temp drops and no more MeOH is evolved (about 1.5 hours). The reaction is then cooled to room temperature and the precipitate (NaCl) is removed by filtration through a glass fiber filter and the DMF was concentrated to about 100 mL total volume at reduced pressure. The solution is cooled to rt. A 1 L flask under argon and a stir bar is charged with anhydrous acetonitrile (1000 mL) and cooled to ˜10 C. The DMF solution is added slowly to rapidly stirring acetonitrile to form a white suspension. Stirring is continued for 30 minutes. […]

Row | Structure (SMILES) | 2022 Concentration of Compound 1 hydrolysis product, average ([1]; average of three measurements after storage under ambient conditions for multiple years) | 2019 Concentration of Compound 1 hydrolysis product, average ([1]; average of three measurements, reference value immediately after preparation) | stability to polymerization in aqueous media ([1]; over prolonged periods of time) | 2022 Concentration of Compound 1 hydrolysis product ([1]; single measurements after storage under ambient conditions for multiple years, expected 60 μg/mL, expressed as Compound 1 equivalent) | 2019 Concentration of Compound 1 hydrolysis product ([1]; single measurements immediately after preparation, Compound 1 diluted in water to expected 60 μg/mL, expressed as Compound 1 equivalent) | time a solution in water remains clear ([2]; 1% solution in water) | dissolution of the powder in water ([2]; fine powder, water, gentle heating)
1 | CCCCCCCCCCCCCCCCCC[N+](C)(C)CCC[Si](O)(O)O [Compound 1 hydrolysis product] | Average: 58.3 μg/mL | Average: 62.6 μg/mL | excellent stability to polymerization | 59.2 µg/mL and 54.8 µg/mL and 60.9 µg/mL | 69.1 µg/mL and 54.3 µg/mL and 64.4 µg/mL | – | –
2 | CCCCCCCCCCCCCCCCCC[N+](C)(C)CCC[Si](OCC(CO)(CO)NCCS(=O)(=O)[O-])(OCC(CO)(CO)NCCS(=O)(=O)O)OCC(CO)(CO)NCCS(=O)(=O)O [Example 1, 2-[[1-[[3-[dimethyl(octadecyl)ammonio]propyl-[3-hydroxy-2-(hydroxymethyl)-2-(2-sulfoethylamino)propoxy]-[3-hydroxy-2-(hydroxymethyl)-2-(2-sulfoethylamino)propoxy]silyl]oxymethyl]-2-hydroxy-1-(hydroxymethyl)ethyl]amino]-ethanesulfonate] | – | – | – | – | – | > 5 months | dissolves quickly in water with gentle heating
